Reference: PubChem BioAssay (NCI)
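Grown in 96-well plates, cells were treated for 48 hours with each compound at five concentrations. Insufficient inhibition: endpoint recorded as highest concentration tested. TGI: concentration producing complete growth inhibition.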

How the values were obtained:
Assay in all cases: NCI tumour cell line growth inhibition, 48 h
COLO 205 colon = system: COLO 205 colon
SF-295 CNS = system: SF-295 CNS
OVCAR-8 ovarian = system: OVCAR-8 ovarian
MDA-N = system: MDA-N
U251 CNS = system: U251 CNS
M14 melanoma = system: M14 melanoma
CCRF-CEM leukemia = system: CCRF-CEM leukemia
K-562 leukemia = system: K-562 leukemia
UO-31 renal = system: UO-31 renal
A549 NSCLC = system: A549 NSCLC
SK-MEL-2 melanoma = system: SK-MEL-2 melanoma
UACC-62 melanoma = system: UACC-62 melanoma
MDA-MB-435 = system: MDA-MB-435

Compound | TGI (COLO 205 colon) [µM] | TGI (SF-295 CNS) [µM] | TGI (OVCAR-8 ovarian) [µM] | TGI (MDA-N) [µM] | TGI (U251 CNS) [µM] | TGI (M14 melanoma) [µM] | TGI (CCRF-CEM leukemia) [µM] | TGI (K-562 leukemia) [µM] | TGI (UO-31 renal) [µM] | TGI (A549 NSCLC) [µM] | TGI (SK-MEL-2 melanoma) [µM] | TGI (UACC-62 melanoma) [µM] | TGI (MDA-MB-435) [µM]
CC(O[Si](c1ccccc1)(c1ccccc1)C(C)(C)C)[C@H](NC(=O)OC(C)(C)C)C(=O)O[Si](c1ccccc1)(c1ccccc1)C(C)(C)C (stereo partly drawn) | 31.3 | 21.4 | 33.6 | 34.1 | 31.7 | 29.4 | 76.6 | 40.6 | 26.3 | 27.9 | – | – | –
CSc1nc(Cl)c2c(n1)Sc1nc3cc4c(cc3n1C2O)OCCO4 (stereo not drawn) | 0.142 | 38.5 | 3.03 | – | 14.3 | 15.5 | 3.76 | 17.6 | 16 | 14 | 29.2 | 7.87 | > 100
O=C(CC(=O)n1nc(-c2ccccc2)c(N=Nc2ccccc2C(=O)O)c1-c1ccccc1)Nc1ccc(Cl)cc1 | > 100 | – | > 100 | > 100 | > 100 | > 100 | – | > 100 | 47.8 | > 100 | > 100 | > 100 | –
Cc1nc2c(nc1Cl)nc(Oc1ccc(Cl)cc1)c1ccccc12 | > 100 | > 100 | 68.2 | – | 40.6 | > 100 | > 100 | > 100 | 73.7 | > 100 | > 100 | > 100 | –
S=C(N/N=C\C=N/NC(=S)N1CCCCC1)N1CCCCC1 | > 100 | > 77.8 | > 100 | > 100 | > 100 | > 100 | – | > 100 | > 63.1 | > 100 | – | > 100 | > 100
O=c1[nH]n2c(=O)cc[nH]c2c1-c1nnns1 | > 100 | > 100 | – | – | > 100 | > 100 | > 100 | > 100 | > 100 | > 100 | > 100 | – | –
CN(C)CCCOc1nc2c(c(=O)n(C)c(=O)n2C)n1C (tested in a mixture with another compound) | > 100 | > 100 | > 100 | – | > 100 | > 100 | > 100 | > 100 | > 100 | > 100 | > 100 | 6.42 | > 100
NC(N)=NS(=O)(=O)c1ccc(NCc2c3ccccc3[n+]([O-])c3ccccc23)cc1 | > 100 | > 100 | > 100 | – | > 100 | > 100 | 84.4 | > 100 | 73.8 | > 100 | > 100 | > 100 | –
O=C(/C=C/c1ccc(O)c([N+](=O)[O-])c1)CC(=O)/C=C/c1ccc(O)c([N+](=O)[O-])c1 | > 100 | > 100 | 39.6 | > 100 | 55.3 | > 100 | > 100 | – | > 100 | > 100 | > 100 | > 100 | > 100
